Source: US20230158025A1 (UNIVERSITY OF UTAH RESEARCH FOUNDATION, priority 2020, published 2023)
pIC50: −log10 of the molar value. Like-named read-outs stand apart in the source and are kept apart here.

Columns and labels:
recombinant mouse GALK1 = recombinant mouse GALK1 (Mus musculus, UniProt Q9R0N0); test: mGALK1 biochemical activity assay (Kinase-Glo Plus, ATP depletion)
Description: In vitro hGALK1 activity assays were performed as previously described. Liu et al., Bioorg. […] The biochemical assay was performed by coupling the activity of recombinant human or mouse GALK1 to the Kinase-Glo Plus luminescent ATP detection kit, using ATP depletion as a measure of GALK1 turnover. […] One μL/well of GALK-galactose solution (5 nM GALK1, 100 μM galactose) in assay buffer was then added, yielding a final reaction volume of 4 μL/well. Following a 1-hour room temperature incubation, 4 μL of Kinase-Glo Plus detection reagent was added to provide an ATP-dependent luminescent readout (final assay volume: 8 μL/well).

[1] = aqueous kinetic solubility
[2] = rat microsomal stability (RLM)
PAMPA permeability = conditions: for Papp: Perm. (1 × 10^−6 cm/sec)
recombinant human GALK1 = recombinant human GALK1 (Homo sapiens, UniProt P51570); test: hGALK1 biochemical activity assay (Kinase-Glo Plus, ATP depletion)
recombinant human GALK1, sequence (P51570 whole entry): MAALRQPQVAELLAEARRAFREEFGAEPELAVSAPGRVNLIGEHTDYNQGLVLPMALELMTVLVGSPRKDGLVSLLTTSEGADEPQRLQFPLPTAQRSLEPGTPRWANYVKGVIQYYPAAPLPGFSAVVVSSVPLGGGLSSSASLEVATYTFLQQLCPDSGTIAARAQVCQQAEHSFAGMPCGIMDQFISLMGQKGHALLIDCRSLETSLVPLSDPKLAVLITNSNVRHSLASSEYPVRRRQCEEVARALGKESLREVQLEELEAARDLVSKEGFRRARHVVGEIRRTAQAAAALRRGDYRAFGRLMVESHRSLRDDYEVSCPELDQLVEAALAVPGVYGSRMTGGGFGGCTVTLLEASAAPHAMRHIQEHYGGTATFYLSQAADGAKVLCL
Description: In vitro hGALK1 activity assays were performed as previously described. Liu et al., Bioorg. Med. Chem. Lett. 25(3): 721-727 (2015), which is incorporated by reference herein for the specific teachings thereof. The biochemical assay was performed by coupling the activity of recombinant human or mouse GALK1 to the Kinase-Glo Plus luminescent ATP detection kit, using ATP depletion as a measure of GALK1 turnover. Specifically, three μL/well of ATP substrate solution (35 μM ATP) in assay buffer (20 mM HEPES pH 8.0, 5 mM MgCl2, 60 mM NaCl, 1 mM DTT, 0.01% BSA final concentration) was dispensed into 1536-well assay plates (Greiner, white solid-bottom medium-binding plates). Aliquots of compound (23 nL solubilized in DMSO) were transferred to the assay plates using a Kalypsys 1536-well pintool such that 11 concentrations with 1/3 dilutions ranging from 57.4 μM-0.97 nM are tested. One μL/well of GALK-galactose solution (5 nM GALK1, 100 μM galactose) in assay buffer was then added, yielding a final reaction volume of 4 μL/well. Following a 1-hour room temperature incubation, 4 μL of Kinase-Glo Plus detection reagent was added to provide an ATP-dependent luminescent readout (final assay volume: 8 μL/well).

[3] = recombinant mouse GALK1, Kinase-Glo Plus ATP depletion, read-out: mGALK
[4] = recombinant human GALK1, Kinase-Glo Plus ATP depletion, read-out: hGALK
[5] = Tables 2-15, 35 μM ATP, 100 μM galactose, 1 h, bracketed figure after some values (e.g. −1.2) is undefined and not reported, read-out: hGALK IC50
[6] = recombinant mouse GALK1, Kinase-Glo Plus ATP depletion, bracketed figure in the cell, e.g. (−1.2), is not defined in the text shown, read-out: mGALK
[7] = microsomal stability half-life, minutes

recombinant mouse GALK1, sequence (Q9R0N0 whole entry): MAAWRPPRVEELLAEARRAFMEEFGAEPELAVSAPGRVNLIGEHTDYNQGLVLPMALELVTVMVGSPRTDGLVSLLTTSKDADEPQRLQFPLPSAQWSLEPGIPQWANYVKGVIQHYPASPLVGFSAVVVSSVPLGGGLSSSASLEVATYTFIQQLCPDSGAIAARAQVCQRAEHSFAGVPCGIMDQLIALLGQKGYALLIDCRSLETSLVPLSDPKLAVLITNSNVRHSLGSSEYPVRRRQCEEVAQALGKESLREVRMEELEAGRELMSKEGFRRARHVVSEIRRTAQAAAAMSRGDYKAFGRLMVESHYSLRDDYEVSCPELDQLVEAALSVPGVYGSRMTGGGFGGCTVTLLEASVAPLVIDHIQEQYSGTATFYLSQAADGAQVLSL

Sol. ([1]; aqueous kinetic solubility) [µg/mL]	Metab. Stabil. (m) ([2]; microsomal stability half-life)	Perm. (1 × 10^−6 cm/sec) (PAMPA permeability; PAMPA)	pIC50 (recombinant human GALK1; [4])	Sol. [1] [µg/mL]	Metab. Stabil. (m) ([2]; microsomal half-life)	Perm. (1 × 10^−6 cm/sec) (PAMPA permeability)	Structure (SMILES)	further results
<1	>30	863.9 1 × 10^−6 cm/sec					CC1=C(C(=O)Nc2ccc(CO)cc2)C(c2ccccc2Cl)N=C(Nc2nc3ccccc3o2)N1 (stereo not drawn) [Compound 160, 2-(benzo[d]oxazol-2-ylamino)-4-(2-chlorophenyl)-N-(4-(hydroxymethyl)phenyl)-6-methyl-1,4-dihydropyrimidine-5-carboxamide]	pIC50 (recombinant human GALK1; [5]): 4.76
33.4	30		5.31				CC1=C(C(=O)Nc2ccc(-c3nnn[nH]3)cc2)C(c2ccccc2Cl)N=C(Nc2nc3ccccc3o2)N1 (stereo not drawn) [Compound 192, N-(4-(1H-tetrazol-5-yl)phenyl)-2-(benzo[d]oxazol-2-ylamino)-4-(2-chlorophenyl)-6-methyl-1,4-dihydropyrimidine-5-carboxamide]	Papp (PAMPA permeability; PAMPA): < 1.7 ×10⁻⁶ cm/s; pIC50 (recombinant human GALK1; [5]): 5.31
<1	>30	246.9 1 × 10^−6 cm/sec	4.66				COC(=O)c1cncc(NC(=O)C2=C(C)NC(Nc3nc4ccccc4o3)=NC2c2ccccc2Cl)c1 (stereo not drawn) [Compound 188, methyl 5-(2-(benzo[d]oxazol-2-ylamino)-4-(2-chlorophenyl)-6-methyl-1,4-dihydropyrimidine-5-carboxamido)nicotinate]	pIC50 (recombinant human GALK1; [5]): 4.68
10.84		219.68 1 × 10^−6 cm/sec					CN(C)C(=O)C1CC(=O)C2=C(C1)NC(Nc1nc3ccccc3o1)=NC2c1ccccc1Cl (stereo not drawn) [Compound 277, 2-(benzo[d]oxazol-2-ylamino)-4-(2-chlorophenyl)-N,N-dimethyl-5-oxo-1,4,5,6,7,8-hexahydroquinazoline-7-carboxamide]	pIC50 (recombinant mouse GALK1; [6]): 5.36; Metab. Stabil. (m) [2, 7]: 20.79 m
<1		319.8 1 × 10^−6 cm/sec					COCC1=C(C(=O)Nc2nncs2)C(c2ccccc2Cl)N=C(Nc2nc3ccccc3o2)N1 (stereo not drawn) [Compound 247]	pIC50 (recombinant mouse GALK1; [6]): 4.71; Metab. Stabil. (m) [2, 7]: >30 m

More lines, now with the values behind:

Structure (SMILES)	Sol. ([1]; aqueous kinetic solubility) [µg/mL]	Metab. Stabil. (m) ([2]; microsomal stability half-life)	Perm. (1 × 10^−6 cm/sec) (PAMPA permeability; PAMPA)	pIC50 (recombinant human GALK1; [4])	Sol. [1] [µg/mL]	Metab. Stabil. (m) ([2]; microsomal half-life)	Perm. (1 × 10^−6 cm/sec) (PAMPA permeability)	further results
CCn1cc(CNC(=O)C2=C(C)NC(Nc3nc4ccc(F)c(N)c4o3)=N[C@@H]2c2ccc(C)cc2Cl)cn1 [Compound 134, (S)-2-((7-amino-6-fluorobenzo[d]oxazol-2-yl)amino)-4-(2-chloro-4-methylphenyl)-N-((1-ethyl-1H-pyrazol-4-yl)methyl)-6-methyl-1,4-dihydropyrimidine-5-carboxamide]	<1	8.619	772.8 1 × 10^−6 cm/sec	5.82				pIC50 (recombinant mouse GALK1; [3]): 4.96
CC1=C(C(=O)Nc2nnc(-c3cccnc3)s2)C(c2ccccc2Cl)N=C(Nc2nc3cc(F)ccc3o2)N1 (stereo not drawn) [Compound 97, 4-(2-chlorophenyl)-2-((5-fluorobenzo[d]oxazol-2-yl)amino)-6-methyl-N-(5-(pyridin-3-yl)-1,3,4-thiadiazol-2-yl)-1,4-dihydropyrimidine-5-carboxamide]				5.26	<1	>30	<1.5 1 × 10^−6 cm/sec	pIC50 (recombinant mouse GALK1; [3]): 4.71
CCOC(=O)c1cccc(NC(=O)C2=C(C)NC(Nc3nc4ccccc4o3)=NC2c2ccccc2Cl)c1 (stereo not drawn) [Compound 139, ethyl 3-(2-(benzo[d]oxazol-2-ylamino)-4-(2-chlorophenyl)-6-methyl-1,4-dihydropyrimidine-5-carboxamido)benzoate]	<1	>30		5.41				Papp (PAMPA permeability; PAMPA): 8.8 ×10⁻⁶ cm/s
COC(=O)c1ccc(NC(=O)C2=C(C)NC(Nc3nc4ccccc4o3)=NC2c2ccccc2Cl)cc1 (stereo not drawn) [Compound 138]	<1	17.7182	25.4 1 × 10^−6 cm/sec					pIC50 (recombinant mouse GALK1; Tables 2-15, 35 μM ATP, 100 μM galactose, 1 h, bracketed figure after some values is undefined and not reported, read-out: mGALK IC50): 5.01; pIC50 (recombinant mouse GALK1; [3]): 5.01
COC(=O)c1ccnc(NC(=O)C2=C(C)NC(Nc3nc4cccc(N)c4o3)=NC2c2ccc(C)cc2Cl)c1 (stereo not drawn) [Compound 91]					<1	25.2784	177.1 1 × 10^−6 cm/sec	pIC50 (recombinant mouse GALK1; [3]): 5.15
CCn1cc(CNC(=O)C2=C(C)NC(Nc3nc4ccc(F)c(N)c4o3)=N[C@H]2c2ccc(C)cc2Cl)cn1 [Compound 135, (R)-2-((7-amino-6-fluorobenzo[d]oxazol-2-yl)amino)-4-(2-chloro-4-methylphenyl)-N-((1-ethyl-1H-pyrazol-4-yl)methyl)-6-methyl-1,4-dihydropyrimidine-5-carboxamide]	2.05		407.39 1 × 10^−6 cm/sec	7.15				pIC50 (recombinant mouse GALK1; [3]): 6.01
CC1=C(C(=O)Nc2cc(C(=O)O)ccn2)C(c2ccc(-c3ccccc3)cc2Cl)N=C(Nc2nc3ccc(F)cc3o2)N1 (stereo not drawn) [Compound 65, 2-(4-(3-chloro-[1,1′-biphenyl]-4-yl)-2-((6-fluorobenzo[d]oxazol-2-yl)amino)-6-methyl-1,4-dihydropyrimidine-5-carboxamido)isonicotinic acid]				5.46	<1	>30	<4.9 1 × 10^−6 cm/sec	
CC1=C(C(=O)Nc2cc(C(=O)O)ccn2)C(c2ccc(C)cc2Cl)N=C(Nc2ncc(-c3ccccc3)o2)N1 (stereo not drawn) [Compound 103, 2-(4-(2-chloro-4-methylphenyl)-6-methyl-2-((5-phenyloxazol-2-yl)amino)-1,4-dihydropyrimidine-5-carboxamido)isonicotinic acid]				4.61	42.2	>30	4.14 1 × 10^−6 cm/sec	pIC50 (recombinant human GALK1; [5]): 4.61
CC1=C(C(=O)Nc2cc(C(=O)O)ccn2)C(c2ccc(C(=O)O)cc2Cl)N=C(Nc2nc3ccc(F)cc3o2)N1 (stereo not drawn) [Compound 72, 2-(4-(4-carboxy-2-chlorophenyl)-2-((6-fluorobenzo[d]oxazol-2-yl)amino)-6-methyl-1,4-dihydropyrimidine-5-carboxamido)isonicotinic acid]				5.66	>83	>30	<1 1 × 10^−6 cm/sec	pIC50 (recombinant human GALK1; [5]): 5.66
COP(=O)(OC)C1=C(C)NC(Nc2nc3ccccc3o2)=NC1c1ccccc1Cl (stereo not drawn) [Compound 242, dimethyl (2-(benzo[d]oxazol-2-ylamino)-4-(2-chlorophenyl)-6-methyl-1,4-dihydropyrimidin-5-yl)phosphonate]	12.21	5.35	1813.86 1 × 10^−6 cm/sec	4.76				
CC1=C(C(=O)Nc2cc(C(=O)O)ccn2)C(c2ccccc2Cl)N=C(Nc2nc3ccccc3o2)N1CC(=O)O (stereo not drawn) [Compound 272]	>83							pIC50 (recombinant mouse GALK1; [6]): 4.86; Metab. Stabil. (m) [2, 7]: >30 m; pIC50 (recombinant human GALK1; read-out: hGALK): 5.46
CC1=C(C(=O)Nc2nnc(-c3cccnc3)s2)C(c2ccccc2Cl)N=C(Nc2nc3cc(N)ccc3o2)N1 (stereo not drawn) [Compound 101, 2-((5-aminobenzo[d]oxazol-2-yl)amino)-4-(2-chlorophenyl)-6-methyl-N-(5-(pyridin-3-yl)-1,3,4-thiadiazol-2-yl)-1,4-dihydropyrimidine-5-carboxamide]				4.96	1.8	>30	4.4 1 × 10^−6 cm/sec	
